Measurements: publication PMC5595280, “Cytotoxicity and anti-tumor effects of new ruthenium complexes on triple negative breast cancer cells” (PLoS ONE, 2017)

Experiments:
[1] = Water-octanol partition coefficient (stir-flask method); assay type: physicochemical; settings: 24 h shaking, 37°C
Description: The water-octanol partition coefficients were determined by use of the stir-flask method. The complex was added in a mixture with equal volumes of water and octanol shaking by 24 h at 100 rpm and 37°C, samples were centrifuged for 5min at 300rpm, the organic and aqueous phases were separated. The concentration of drug in each phase was measured spectrophotometrically in order to determine values of P = [drug] (in octanol)/[drug] (in water).

MDA-MB-231 cells [2] = assay: Cell adhesion to ECM proteins; assay type: cell-based, human
Description: The effects of complex (4) on the adhesion of MDA-MB-231 cells were analyzed in 96-well plates (Corning) as described earlier. Vitronectin (1.0 μg), laminin (0.3 μg) or fibronectin (0.3 μg) immobilized on the plates in a cell adhesion buffer (20 mM HEPES, 150 mM NaCl, 5 mM KCl, 1 mM MgSO4 and 1 mM MnCl2 pH 7.35), overnight at 4°C. Collagen type I (10 μg) was dissolved in acetic acid (0.1%) and coated on the wells. On the next day, wells were blocked with adhesion buffer containing 1% BSA solution for 1h and then washed with 100 μL per well of adhesion buffer. Cells (5 x 10^4/100 μL) were incubated for 30 min with different concentrations of the complex (4) at 37°C 5% CO2 and then plated and incubated under the same conditions for a further 1h. Then the non-adhered cells were gently removed by washing and attached cells were fixed with 100 μL 70% ethanol for 10 min. Cells were stained with 0.5% crystal violet for 20min and the excess dye was removed by washing with PBS. The stained cells were diluted in 100 μL of 1% solution of sodium dodecyl sulfate (SDS) for 30min and reading of the plates was performed on ELISA reader at 595 nm wavelength.

MDA-MB-231 cells [3] = assay: Phalloidin staining of F-actin cytoskeleton; assay type: cell-based, human; settings: 30 min
Description: To examine the effects of complex (4) on the F-actin cytoskeleton organization in MDA-MB-231 cells, Alexa Fluor® 488 Phalloidin was used to stain the F-actin fibers. MDA-MB-231 cells (5x10^4 cells/100 μL) were plated in 96-well plates and maintained at 37°C in a humidified incubator with 5% CO2 for 24 h. In the next day, cells were treated with 10, 20, 40 μM of complex (4) and incubated for 30 min. Next, cells were washed with PBS, fixed with 3.7% paraformaldehyde in PBS for 30 min and then permeabilized with 0.1% Triton-X 100 in PBS for 5min at room temperature. Blocking was performed with 2% BSA for 30 min, followed by the addition of Alexa Fluor 488 Phalloidin for 20 min. Cells were then stained with DAPI for nuclear labeling for 10min and finally washed again with PBS for three times. Images were obtained with an automated microscope ImageXpress® Micro XLS System (Molecular Devices).

HSA = HSA (Homo sapiens, UniProt P02768); assay: HSA tryptophan fluorescence quenching; assay type: binding
Description: For fluorescence measurements, the HSA concentration in Tris–HCl buffer was kept constant in all the samples, while the complex concentration was increased from 0.50 to 50 μM, and quenching of the emission intensity of the HSA tryptophan residues at 305 nm (excitation wavelength 270 nm) was monitored at different temperatures (25°C and 37°C). The experiments were carried out in triplicate and analysed using the classical Stern-Volmer equation. The binding constant (Kb) and number of complexes bound to HSA (n) were determined by plotting the double log graph of the fluorescence data using: log [(F0-F)/F] = log Kb + nlog[Q]. The thermodynamic parameter (ΔH) was calculated from equation: ln (K2/K1) = [(1/T1)-(1/T2)]ΔH/R, where K1 and K2 are the binding constants at temperatures T1 and T2, and R is the gas constant. Furthermore, the change in free energy (ΔG) and entropy (ΔS) were calculated from the following equation: ΔG = -RT lnK = ΔH − TΔS.
Human serum albumin (HSA) is the most abundant protein in the blood and cerebrospinal fluid and plays a fundamental role in the distribution of essential transition metal ions in the human body. Moreover, HSA is an important physiological transporter of the essential metal ions Cu^2+, and Zn^2+ in the bloodstream. […] The fluorescence spectrum is essentially that of tryptophan residue; contribution of tyrosine is relatively minor. In order to determine the protein binding affinity of complexes (1–4), tryptophan emission quenching experiments were carried out by adding the complexes in increasing concentration (0–50 μM) to HSA at two different temperatures and following the decrease in fluorescence intensities (Fig 6D). The results point out a good linearity at the two different temperatures. The binding constants, KSV, calculated from the Stern-Volmer equation are presented on Table 2.

MDA-MB-231 cells [4] = assay: DAPI staining for nuclear fragmentation; assay type: cell-based, human; settings: 60 and 70 μM, 3 h
Description: The apoptotic activity of the complex (4) was analyzed by DAPI staining and flow cytometry with PE-Annexin-V Apoptosis Detection Kit (BD Biosciences). For DAPI staining, MDA-MB-231 cells (2.0 x 10^4/100 μL) were seeded in 96-wells plates and maintained at 37°C in a humidified incubator with 5% CO2 for 24 h. In the next day, cells were treated with 60 and 70 μM of complex (4) and incubated for 3 h. Next, cells were washed with PBS, fixed with methanol and stained with DAPI 1 μg/mL (Life Technologies, Carlsbad, CA) in DMEM medium without FBS for 10 min. Fluorescence was captured in automated microscope ImageXpress® Micro XLS System (Molecular Devices).

MDA-MB-231 cells [5] = assay: Colony formation (clonogenic) assay; assay type: cell-based, human; settings: 3 h treatment, 10 days
Description: Exponentially growing MDA-MB-231 cells were harvested, counted and seeded (300 cells/plate) into Petri dishes. Cells were allowed to grow at 37°C in 5% CO2 overnight and then, treated with different concentrations of complex (4) for 3 h. After this time, the medium was changed to a fresh medium without any complex. After incubation for additional 10 days the cells were rinsed with PBS, fixed with methanol and acid acetic 3:1 for 5 min and stained with methanol and crystal violet 5% for 15min. Relative survival was calculated from the number of single cells that formed colonies of >50 cells on the tenth day.

Chain of HSA (P02768 25-609): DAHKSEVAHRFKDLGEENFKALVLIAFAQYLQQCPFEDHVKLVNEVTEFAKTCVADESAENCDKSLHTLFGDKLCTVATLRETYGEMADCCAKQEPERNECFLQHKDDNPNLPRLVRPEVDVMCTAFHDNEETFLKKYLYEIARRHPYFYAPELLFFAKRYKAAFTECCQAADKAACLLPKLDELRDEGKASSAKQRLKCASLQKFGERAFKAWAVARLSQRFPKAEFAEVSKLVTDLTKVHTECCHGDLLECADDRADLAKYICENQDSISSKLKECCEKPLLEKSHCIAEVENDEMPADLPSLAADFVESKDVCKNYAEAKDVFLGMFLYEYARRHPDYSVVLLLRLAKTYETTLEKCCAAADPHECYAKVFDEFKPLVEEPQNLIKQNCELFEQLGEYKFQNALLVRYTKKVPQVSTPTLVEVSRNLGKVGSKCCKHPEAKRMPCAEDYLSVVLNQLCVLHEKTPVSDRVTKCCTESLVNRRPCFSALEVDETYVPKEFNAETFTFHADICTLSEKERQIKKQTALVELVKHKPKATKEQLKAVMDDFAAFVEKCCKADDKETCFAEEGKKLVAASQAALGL

CC(=O)[O-].F[P-](F)(F)(F)(F)F.[Ru+2].c1ccc(-c2ccccn2)nc1.c1ccc(P(CCCCP(c2ccccc2)c2ccccc2)c2ccccc2)cc1 [Complex (4), [Ru(CH3CO2)(dppb)(bipy)]PF6]
Log P [1]: 0.77 ± 0.03
inhibition of cell adhesion to type I collagen (MDA-MB-231 cells [2]; 20 μM): approximately 35%
inhibition of cell adhesion to fibronectin, laminin and vitronectin (MDA-MB-231 cells [2]; 40 μM): about 65%
inhibition of cell adhesion to type I collagen (MDA-MB-231 cells [2]; 40 μM): ~50%
effect on cell adhesion to fibronectin, laminin and vitronectin (MDA-MB-231 cells [2]; all concentrations tested): inhibited cell adhesion
effect on actin cytoskeleton structure (MDA-MB-231 cells [3]; 10, 20 and 40 μM): strongly modified the structure of the actin cytoskeleton
effect on cytoskeleton density (MDA-MB-231 cells [3]; 20 and 40 μM): decrease in cytoskeleton density
Kq (HSA) (HSA; T 298): 4.95e+13 M⁻¹ s⁻¹
Ksv (HSA) (HSA; T 298): 4.74 ± 0.70 x10^4 M^-1
n (number of binding sites, HSA) (HSA; T 298): 1.20
ΔS (HSA) (HSA; complex-HSA system): 110.13 J.mol^-1K
ΔH (HSA) (HSA; from binding constants at 298 and 310): 0.359 kcal/mol
apoptotic nuclei (DAPI) (MDA-MB-231 cells [4]): more apoptotic nucleic
effect on colony formation (MDA-MB-231 cells [5]; 20 μM): completely abolished the capacity of breast tumor cells to form colonies
effect on colony number and size (MDA-MB-231 cells [5]; 2.5, 5, 10 and 20 μM): significantly inhibited the colony number and size
